In brackets after ≈: the same amount, converted by molar mass. Like-named read-outs stand apart in the source and are kept apart here.
What was measured:
[1] = test system: herpes simplex virus type 1 (HSV-1 strain KOS); test: CPE reduction, MTS assay, HSV-1 in HEL cells; format: cell-based; conditions: Human alphaherpesvirus 1, protection against virus-induced CPE, read-out: Antiviral EC50 HSV-1
[2] = test system: herpes simplex virus type 2 (HSV-2, strain G); test: CPE reduction, MTS assay, HSV-2 in HEL cells; format: cell-based; conditions: Human alphaherpesvirus 2, protection against virus-induced CPE, read-out: Antiviral EC50 HSV-2
[3] = test system: thymidine kinase deficient HSV-1/TK- mutant; test: microbe, parasite or virus in culture; format: cell-based, herpes simplex virus type 1; conditions: Human alphaherpesvirus 1, HEL, read-out: Antiviral EC50 HSV-1/TK-
[4] = test system: vaccinia virus (strain Lederle); test: microbe, parasite or virus in culture; format: cell-based; conditions: Orthopoxvirus vaccinia, HEL, read-out: Antiviral EC50 Vaccinia Virus
in vitro [5] = conditions: human
in vitro [6] = conditions: human; remark: listed apart in the source
in vitro [7] = conditions: African green monkey
B. subtilis ATCC 6633 = test: Broth microdilution MIC, B. subtilis ATCC 6633; format: cell-based; conditions: for MIC: Bacillus subtilis
Method: (§1) Antibacterial tests were carried out by the broth microdilution method on a panel of eight Gram-positive bacterial strains, using vancomycin and teicoplanin as reference compounds.

[8] = test system: S. aureus MSSA ATCC 29213; test: Broth microdilution MIC, S. aureus MSSA ATCC 29213; format: cell-based; conditions: for MIC: Staphylococcus aureus, read-out: In Vitro MIC
Method: as §1

[9] = test system: S. aureus MRSA ATCC 33591; test: Broth microdilution MIC, S. aureus MRSA ATCC 33591; format: cell-based; conditions: for MIC: Staphylococcus aureus, read-out: In Vitro MIC
Method: as §1

[10] = test system: S. epidermidis ATCC 35984; test: Broth microdilution MIC, S. epidermidis ATCC 35984; format: cell-based; conditions: for MIC: Staphylococcus epidermidis
Method: as §1

S. epidermidis mecA = test: Broth microdilution MIC, S. epidermidis mecA; format: cell-based; conditions: for MIC: Staphylococcus epidermidis, read-out: In Vitro MIC
Method: as §1

E. faecalis ATCC 29212 = test: Broth microdilution MIC, E. faecalis ATCC 29212; format: cell-based; conditions: for MIC: Enterococcus faecalis
Method: as §1

E. faecalis 15,376 VanA = test: Broth microdilution MIC, E. faecalis 15,376 VanA; format: cell-based; conditions: for MIC: Enterococcus faecalis, read-out: In Vitro MIC
Method: as §1

[11] = test system: E. faecalis ATCC 51,299 VanB; test: Broth microdilution MIC, E. faecalis ATCC 51,299 VanB; format: cell-based; conditions: for MIC: Enterococcus faecalis, ATCC51, read-out: In Vitro MIC
Method: as §1

A/PR/8/34 virus = format: cell-based, Influenza A virus
influenza A or B viruses = test: Anti-influenza virus activity in MDCK cells, MTS assay, overall for the three influenza A or B viruses; format: cell-based, Influenza A and B viruses
MDCK cells = conditions: read-out: CC50 (50% cytotoxic concentration), mock-infected, MTS cell viability assay, three days
[12] = test system: HEL, human embryonic lung fibroblast cells; conditions: read-out: CC50 HEL; mock-infected HEL cells, MTS assay
[13] = test system: HeLa, human cervix carcinoma cells; conditions: read-out: CC50 HeLa; mock-infected HeLa cells, MTS assay
[14] = test system: Vero, African Green monkey kidney cells; conditions: read-out: CC50 Vero; mock-infected Vero cells, MTS assay
[15] = test system: Influenza A/H1N1 (A/Ned/378/05); test: Influenza CPE reduction in MDCK cells, MTS assay, A/H1N1; format: cell-based; conditions: Influenza A virus, H1N1; MDCK cells; A/Ned/378/05; inhibition of virus-induced CPE by MTS assay; read-out: Antiviral EC50 Influenza A/H1N1
[16] = test system: Influenza A/H3N2 (A/Victoria/361/11); test: Influenza CPE reduction in MDCK cells, MTS assay, A/H3N2; format: cell-based; conditions: Influenza A virus, H3N2; MDCK cells; A/Victoria/361/11; inhibition of virus-induced CPE by MTS assay; read-out: Antiviral EC50 Influenza A/H3N2
[17] = test system: Influenza B (B/Ned/537/05); test: Influenza CPE reduction in MDCK cells, MTS assay, influenza B; format: cell-based; conditions: Influenza B virus, inhibition of virus-induced CPE by MTS assay, read-out: Antiviral EC50 Influenza B
in vitro [18] = conditions: dog
[19] = S. aureus MSSA ATCC 29213, broth microdilution
[20] = ATCC6633, read-out: In Vitro MIC
[21] = ATCC35984, read-out: In Vitro MIC
[22] = ATCC29212, read-out: In Vitro MIC

## Nc1nc2c(ncn2COCCO)c(=O)[nH]1 [Aciclovir]
[1]
  EC50: 2.4 µM
[2]
  EC50: 0.05 µM
[3]
  EC50: 146 µM
[4]
  EC50: > 250 µM
In vitro [5]
  CC50: > 250 µM
In vitro [6]
  CC50: > 250 µM
In vitro [7]
  CC50: > 250 µM

## Nc1ccn(C[C@@H](CO)OCP(=O)(O)O)c(=O)n1 [Cidofovir]
[1]
  EC50: 2.4 µM
[2]
  EC50: 1 µM
[3]
  EC50: 5.8 µM
[4]
  EC50: 37 µM
In vitro [5]
  CC50: > 250 µM
In vitro [6]
  CC50: > 250 µM
In vitro [7]
  CC50: > 250 µM

## CCCCSC1=C(SCCCC)C(=O)N(CCOCCOCCOCCOCc2cn(C3C(=O)NC(CC(N)=O)C(=O)NC4C(=O)NC5C(=O)NC(C(=O)NC(C(=O)O)c6cc(O)cc(O)c6-c6cc5ccc6O)C(O)c5ccc(c(Cl)c5)Oc5cc4cc(c5O)Oc4ccc(cc4Cl)C3O)nn2)C1=O (stereo not drawn) [Compound 7]
B. subtilis ATCC 6633; ATCC6633, B. subtilis ATCC 6633, broth microdilution, read-out: In Vitro MIC
  MIC: 32 µg/mL (≈ 20.9 µM)
[8]; [19]
  MIC: 256 µg/mL (≈ 167 µM)
[9]
  MIC: 256 µg/mL (≈ 167 µM)
[10]; ATCC35984, S. epidermidis ATCC 35984, broth microdilution, read-out: In Vitro MIC
  MIC: 32 µg/mL (≈ 20.9 µM)
S. epidermidis mecA
  MIC: 32 µg/mL (≈ 20.9 µM)
E. faecalis ATCC 29212; ATCC29212, E. faecalis ATCC 29212, broth microdilution, read-out: In Vitro MIC
  MIC: 32 µg/mL (≈ 20.9 µM)
E. faecalis 15,376 VanA
  MIC: 256 µg/mL (≈ 167 µM)
[11]
  MIC: 256 µg/mL (≈ 167 µM)
A/PR/8/34 virus
  virus-induced cytopathic effect (CPE) upon microscopic inspection: no virus-induced cytopathic effect (CPE) was observed
Influenza A or B viruses
  anti-influenza virus activity (in words): robust activity
MDCK cells
  CC50: 18 µM
[12]
  CC50: > 100 µM
[13]
  CC50: > 100 µM
[14]
  CC50: > 100 µM

## CCCCCCS(=O)(=O)NC1C(=O)NC(CC(N)=O)C(=O)NC2C(=O)NC3C(=O)NC(C(=O)NC(C(=O)O)c4cc(O)cc(O)c4-c4cc3ccc4O)C(O)c3ccc(c(Cl)c3)Oc3cc2cc(c3O)Oc2ccc(cc2Cl)C1O (stereo not drawn) [Compound 8]
B. subtilis ATCC 6633; [20]
  MIC: 32 µg/mL (≈ 27.5 µM)
[8]
  MIC: 256 µg/mL (≈ 220 µM)
[9]
  MIC: 256 µg/mL (≈ 220 µM)
[10]; [21]
  MIC: 32 µg/mL (≈ 27.5 µM)
S. epidermidis mecA
  MIC: 64 µg/mL (≈ 54.9 µM)
E. faecalis ATCC 29212; [22]
  MIC: 32 µg/mL (≈ 27.5 µM)
E. faecalis 15,376 VanA
  MIC: 256 µg/mL (≈ 220 µM)
[11]
  MIC: 128 µg/mL (≈ 110 µM)
[15]
  EC50: > 100 µM
[16]
  EC50: > 100 µM
[17]
  EC50: > 100 µM
Influenza A or B viruses
  anti-influenza virus activity (in words): inactive
In vitro [18]
  CC50: 100 µM

## CCCCCCCCCCOCc1cn(CCOCCOCCOCCOCc2cn(CCNC(=O)[C@H]3NC(=O)[C@H]4NC(=O)[C@H](NC(=O)[C@@H]5NC(=O)[C@H](CC(N)=O)NC(=O)[C@H](N)[C@H](O)c6ccc(c(Cl)c6)Oc6cc5cc(c6O)Oc5ccc(cc5Cl)[C@H]4O)c4ccc(O)c(c4)-c4c(O)cc(O)cc43)nn2)nn1 [Compound 11]
B. subtilis ATCC 6633; [20]
  MIC: 32 µg/mL (≈ 20.8 µM)
[8]
  MIC: 256 µg/mL (≈ 166 µM)
[9]
  MIC: 256 µg/mL (≈ 166 µM)
[10]; [21]
  MIC: 256 µg/mL (≈ 166 µM)
S. epidermidis mecA
  MIC: 256 µg/mL (≈ 166 µM)
E. faecalis ATCC 29212; [22]
  MIC: 128 µg/mL (≈ 83.2 µM)
E. faecalis 15,376 VanA
  MIC: 256 µg/mL (≈ 166 µM)
[11]
  MIC: 256 µg/mL (≈ 166 µM)
MDCK cells
  CC50: ≥ 20 µM

## CCCCSC1=C(SCCCC)C(=O)N(CCOCCOCCOCCOCc2cn(CCNC(=O)[C@H]3NC(=O)[C@H]4NC(=O)[C@H](NC(=O)[C@@H]5NC(=O)[C@H](CC(N)=O)NC(=O)[C@H](N)[C@H](O)c6ccc(c(Cl)c6)Oc6cc5cc(c6O)Oc5ccc(cc5Cl)[C@H]4O)c4ccc(O)c(c4)-c4c(O)cc(O)cc43)nn2)C1=O [Compound 12]
B. subtilis ATCC 6633; [20]
  MIC: 256 µg/mL (≈ 163 µM)
[8]
  MIC: 256 µg/mL (≈ 163 µM)
[9]
  MIC: 256 µg/mL (≈ 163 µM)
[10]; [21]
  MIC: 128 µg/mL (≈ 81.4 µM)
S. epidermidis mecA
  MIC: 256 µg/mL (≈ 163 µM)
E. faecalis ATCC 29212; [22]
  MIC: 128 µg/mL (≈ 81.4 µM)
E. faecalis 15,376 VanA
  MIC: 256 µg/mL (≈ 163 µM)
[11]
  MIC: 256 µg/mL (≈ 163 µM)
Influenza A or B viruses
  anti-influenza virus activity (in words): only slightly active
MDCK cells
  CC50: 100 µM

## CCCCCCS(=O)(=O)NCCNC(=O)[C@H]1NC(=O)[C@H]2NC(=O)[C@H](NC(=O)[C@@H]3NC(=O)[C@H](CC(N)=O)NC(=O)[C@H](N)[C@H](O)c4ccc(c(Cl)c4)Oc4cc3cc(c4O)Oc3ccc(cc3Cl)[C@H]2O)c2ccc(O)c(c2)-c2c(O)cc(O)cc21 [Compound 13]
B. subtilis ATCC 6633; [20]
  MIC: 256 µg/mL (≈ 212 µM)
[8]
  MIC: 256 µg/mL (≈ 212 µM)
[9]
  MIC: 256 µg/mL (≈ 212 µM)
[10]; [21]
  MIC: 128 µg/mL (≈ 106 µM)
S. epidermidis mecA
  MIC: 128 µg/mL (≈ 106 µM)
E. faecalis ATCC 29212; [22]
  MIC: 64 µg/mL (≈ 53 µM)
E. faecalis 15,376 VanA
  MIC: 256 µg/mL (≈ 212 µM)
[11]
  MIC: 128 µg/mL (≈ 106 µM)
[15]
  EC50: 34 µM
[16]
  EC50: 14 µM
[17]
  EC50: > 100 µM
Influenza A or B viruses
  anti-influenza virus activity (in words): only slightly active
In vitro [18]
  CC50: > 100 µM

## Nc1nc(O)c2ncn(COC(CO)CO)c2n1 [Ganciclovir]
[1]
  EC50: 0.1 µM
[2]
  EC50: 0.03 µM
[4]
  EC50: > 100 µM
In vitro [5]
  CC50: > 100 µM
In vitro [6]
  CC50: > 100 µM
In vitro [7]
  CC50: > 100 µM

## CN[C@H](CC(C)C)C(=O)N[C@H]1C(=O)N[C@@H](CC(N)=O)C(=O)N[C@H]2C(=O)N[C@H]3C(=O)N[C@H](C(=O)N[C@H](C(=O)O)c4cc(O)cc(O)c4-c4cc3ccc4O)[C@H](O)c3ccc(c(Cl)c3)Oc3cc2cc(c3O[C@@H]2O[C@H](CO)[C@@H](O)[C@H](O)[C@H]2O[C@H]2C[C@](C)(N)[C@H](O)[C@H](C)O2)Oc2ccc(cc2Cl)[C@H]1O [VAN, vancomycin]
B. subtilis ATCC 6633; [20]
  MIC: 0.5 µg/mL (≈ 0.345 µM)
[8]
  MIC: 0.5 µg/mL (≈ 0.345 µM)
[9]
  MIC: 0.5 µg/mL (≈ 0.345 µM)
[10]; [21]
  MIC: 2 µg/mL (≈ 1.38 µM)
S. epidermidis mecA
  MIC: 4 µg/mL (≈ 2.76 µM)
E. faecalis ATCC 29212; [22]
  MIC: 1 µg/mL (≈ 0.69 µM)
E. faecalis 15,376 VanA
  MIC: 256 µg/mL (≈ 177 µM)
[11]
  MIC: 128 µg/mL (≈ 88.3 µM)

## CC(=O)N[C@H]1[C@H]([C@H](O)[C@H](O)CO)OC(C(=O)O)=C[C@@H]1N=C(N)N [Zanamivir, reference compound]
[15]
  EC50: 0.4 µM
[16]
  EC50: 9 µM
[17]
  EC50: 4.5 µM
In vitro [18]
  CC50: > 100 µM

## teicoplanin [reference compound]
B. subtilis ATCC 6633; B. subtilis ATCC 6633, broth microdilution
  In Vitro MIC: 0.5 µg/mL
[8]; [19]
  In Vitro MIC: 0.5 µg/mL
[9]; S. aureus MRSA ATCC 33591, broth microdilution
  In Vitro MIC: 0.5 µg/mL
[10]; S. epidermidis ATCC 35984, broth microdilution
  In Vitro MIC: 4 µg/mL
S. epidermidis mecA; S. epidermidis mecA, broth microdilution
  In Vitro MIC: 16 µg/mL
E. faecalis ATCC 29212; E. faecalis ATCC 29212, broth microdilution
  In Vitro MIC: 1 µg/mL
E. faecalis 15,376 VanA; E. faecalis 15,376 VanA, broth microdilution
  In Vitro MIC: 256 µg/mL
[11]; E. faecalis ATCC 51,299 VanB, broth microdilution
  In Vitro MIC: 0.5 µg/mL

— article PMC7407158, “Reprogramming of the Antibacterial Drug Vancomycin Results in Potent Antiviral Agents Devoid of Antibacterial Activity” (Pharmaceuticals, 2020)
